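Method: 48-hour compound exposure of cells in 96-well plates, five concentrations, linear interpolation of endpoints. GI50 is the concentration that inhibits growth by half. TGI marks complete inhibition of growth.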
Experiments:
Assay in all cases: growth of human tumour cells (NCI), 48 h
K-562 leukemia = test system: K-562 leukemia
M14 melanoma = test system: M14 melanoma
MALME-3M melanoma = test system: MALME-3M melanoma
MDA-MB-231 breast = test system: MDA-MB-231 breast
OVCAR-3 ovarian = test system: OVCAR-3 ovarian
OVCAR-4 ovarian = test system: OVCAR-4 ovarian
SK-MEL-2 melanoma = test system: SK-MEL-2 melanoma
SK-OV-3 ovarian = test system: SK-OV-3 ovarian
SN12C renal = test system: SN12C renal
MOLT-4 leukemia = test system: MOLT-4 leukemia

| SMILES | GI50 (K-562 leukemia) [µM] | TGI (K-562 leukemia) [µM] | GI50 (M14 melanoma) [µM] | TGI (M14 melanoma) [µM] | GI50 (MALME-3M melanoma) [µM] | TGI (MALME-3M melanoma) [µM] | GI50 (MDA-MB-231 breast) [µM] | TGI (MDA-MB-231 breast) [µM] | GI50 (OVCAR-3 ovarian) [µM] | TGI (OVCAR-3 ovarian) [µM] | GI50 (OVCAR-4 ovarian) [µM] | TGI (OVCAR-4 ovarian) [µM] | GI50 (SK-MEL-2 melanoma) [µM] | TGI (SK-MEL-2 melanoma) [µM] | GI50 (SK-OV-3 ovarian) [µM] | TGI (SK-OV-3 ovarian) [µM] | GI50 (SN12C renal) [µM] | TGI (SN12C renal) [µM] | TGI (MOLT-4 leukemia) [µM] | GI50 (MOLT-4 leukemia) [µM] |
| --- | --- | --- | --- | --- | --- | --- | --- | --- | --- | --- | --- | --- | --- | --- | --- | --- | --- | --- | --- | --- |
| CC1=C(C#N)C23C(=O)c4ccccc4C(O)=C2C(=O)C=CC3(O)N1Cc1ccccc1 (configuration not stated) | 32.9 | > 100 | 32.8 | > 100 | 22 | 47.1 | 44.4 | > 100 | 32 | > 100 | 38.6 | > 100 | 33 | > 100 | > 100 | > 100 | 52.5 | > 100 |  |  |
| CC1=C(C(=O)Nc2ccc(F)c(Cl)c2)C(c2ccc(Cl)cc2)NC(=O)N1 (configuration not stated) | 0.0173 | 21.3 | 16.5 | 33.6 | 16.8 | 38.5 | 13.7 | 27.1 | 17.8 | 38.4 |  |  | 19.1 | 35.3 | 81.8 | > 100 | 17.8 | 32.2 |  |  |
| CC(=O)NC1=C(NCC(C)(C)C)C(=O)c2ccccc2C1=O |  | > 100 |  | > 100 |  | > 100 |  |  |  | > 100 |  | > 100 |  | > 100 |  | > 100 |  | > 100 | > 100 |  |
| CSc1ccc(/C=C2\CN(C)C/C(=C\c3ccc(SC)cc3)C2=O)cc1 |  | > 100 |  | > 100 |  | > 100 |  |  |  | 56 |  | > 100 |  | > 100 |  | 88.1 |  | 78.9 | > 100 |  |
| COc1ccc2nc3cc(Cl)ccc3c(Sc3ccccc3[N+](=O)[O-])c2c1 |  | > 100 |  | > 100 |  | > 100 |  |  |  | > 100 |  | > 100 |  | > 100 |  | > 100 |  | 75.7 | > 100 |  |
| CC[C@@]12CCCN3CC[C@]4(c5cccc(OC)c5N(C(C)=O)[C@@H]4CC1)[C@H]32 |  |  |  | > 100 |  | > 100 |  | > 100 |  | > 100 |  | > 100 |  | > 100 |  | > 100 |  | > 100 | 61.3 |  |
| CCc1ccc2c(c1)C(=O)c1c-2n(CCCBr)c(=O)c2cc([N+](=O)[O-])ccc12 | > 50 | > 50 | > 50 | > 50 | 18.5 | > 50 | 45.7 | > 50 | > 50 | > 50 | 48.1 | > 50 | 31.9 | > 50 |  |  | > 50 | > 50 |  |  |
| O=C(CCl)N1c2ccccc2Oc2ccc3ccccc3c21 | 0.31 | 1.42 | 1.14 | 2.56 | 1.33 | 2.91 | 1.28 | 2.81 | 1.23 | 2.64 | 1.44 | 3.34 | 1.14 | 2.67 | 2.51 | 6.09 |  |  | 1.95 | 0.339 |
| CCOC(=O)C(Sc1ccccc1)c1c(OC)cc(=O)oc1/C=[N+](/[O-])c1ccc(N(C)C)cc1 (configuration not stated) |  | 23.8 |  | 31.1 |  | 58.5 |  |  |  | 26 |  | 51.6 |  | 77.5 |  | > 100 |  | 32 | 37.9 |  |
| O=C(O)c1cc(C(=O)O)cc(N2C(=O)c3ccccc3C2=O)c1 |  | > 100 |  | > 100 |  | > 100 |  | > 100 |  | > 100 |  | > 100 |  | > 100 |  | > 100 |  | > 100 |  |  |
| CSCCCN(CCCSC)CCCSC |  | > 100 |  | > 100 |  |  |  | > 100 |  | > 100 |  | > 100 |  |  |  | > 100 |  | > 100 | > 100 |  |
| CNC(=O)c1cc(Oc2ccc3nc(NC(=O)Nc4ccc(Cl)c(C(F)(F)F)c4)sc3c2)ccn1 |  |  |  |  |  |  | 1.43 | 4.29 |  |  |  |  | 5.69 | 47 | 1.89 | 4.21 | 2.44 | > 100 |  |  |
| CC(C)=CCCc1c(C)ccc2c1C(=O)C(=O)C(C(C)C)=C2 |  | 8.08 |  | 7.95 |  | 6.78 |  |  |  | 7.36 |  | 8.81 |  | 8.14 |  | > 22 |  | > 22 | 20 |  |
| CC1(C)OC(=O)C(=Cc2ccc(O)cc2)C(=O)O1 |  | > 100 |  | > 100 |  | > 100 |  |  |  | > 100 |  | > 100 |  | > 100 |  | > 100 |  | > 100 | > 100 |  |
| O=c1cc(-c2cccc(O)c2)[nH]c2cc3c(cc12)OCO3 |  | > 100 |  | > 52.5 |  | > 100 |  | 22.1 |  | 0.386 |  | > 100 |  |  |  | 8.27 |  | > 78 | > 100 |  |
| CCOC(=O)c1ncn2c1[nH]c(=S)c1ccccc12 |  | > 100 |  | > 100 |  | > 100 |  |  |  | > 100 |  | > 100 |  | > 100 |  | > 100 |  | > 100 | > 100 |  |
| Cc1cc2nc(C(Cl)Cl)nc(-c3ccc(Cl)cc3)n2n1 | 1.39 | > 28.5 | 1.31 | 3.25 | 1.48 | 2.99 | 1.23 | 4.21 | 0.491 | 1.87 | 1.06 | 4.38 |  |  | 2.11 | 7 | 2.64 | > 100 | > 100 | 1.01 |
| COc1ccc(NC(=O)c2cc(OC)cc(OC)c2)cc1 |  | > 100 |  | > 100 |  | > 100 |  |  |  | > 48.6 |  | > 100 |  | > 100 |  | > 84.8 |  | > 100 | > 100 |  |
| O=C(N/C(=C\c1cc(Cl)ccc1Cl)c1nc2[nH]c(=S)[nH]c(=O)c2[nH]1)c1ccccc1 |  | > 62.6 |  | > 56.5 |  | > 100 |  |  |  | > 100 |  | > 100 |  | > 100 |  | > 100 |  | > 66.6 | > 80.8 |  |
| CC1(C)COC(c2ccc(C(F)(F)F)cc2C(O)c2ccc3ccccc3c2)=N1 (configuration not stated) | > 100 | > 100 | > 100 | > 100 | > 100 | > 100 |  |  | > 100 | > 100 | > 100 | > 100 | > 100 | > 100 | > 100 | > 100 | > 100 | > 100 | > 100 | > 100 |
| COc1cc2cnc3c4cc(OC(C)C)c(OC)cc4ccc3c2cc1OC |  | > 100 |  | > 100 |  | > 100 |  |  |  | > 100 |  | > 100 |  | > 100 |  | > 100 |  | > 100 | > 100 |  |

Source: PubChem BioAssay (NCI)
